Residues, ends and D or L forms follow the SMILES beside them.
What was measured:
[1] = tested on: methicillin-resistant S. aureus (N07-10-0043); type: cell-based, Staphylococcus aureus; settings: S. aureus MRSA N07-10-0043 (methicillin-resistant clinical isolate); L.B. medium, approx. 10^5 CFU/mL, overnight incubation; at least three times
Protocol: (§1) MIC assays were conducted to determine the antibacterial spectrum of these peptides. MIC is defined as the minimum concentration of a reagent, viz., peptide, in this study, required to inhibit bacterial growth after overnight incubation. Microbial strains were cultured in an L.B. medium, and midlogarithmic-phase organisms were used in the antibacterial assays. All bacteria were inoculated in an L.B. medium (approximately 10^5 CFU/mL), and MIC assays were performed with various concentrations of each peptide. All activity measurements were conducted at least three times.

[2] = tested on: methicillin-susceptible S. aureus (S01-10-0202); type: cell-based, Staphylococcus aureus; settings: methicillin-susceptible (S01-10-0202)
Protocol: as §1

[3] = tested on: carbapenem-susceptible P. aeruginosa (S07-10-0059); type: cell-based, Pseudomonas aeruginosa; settings: carbapenem-susceptible (S07-10-0059)
Protocol: as §1

[4] = tested on: carbapenem-resistant P. aeruginosa (M06-06-0213); type: cell-based, Pseudomonas aeruginosa; settings: P. aeruginosa M06-06-0213 (carbapenem-resistant clinical isolate); L.B. medium, approx. 10^5 CFU/mL, overnight incubation; at least three times
Protocol: as §1

Measured: Antibacterial activity (MIC)

CC(C)[C@@H]1NC(=O)[C@H](CCCNC(=N)N)NC(=O)[C@H](Cc2ccccc2)NC(=O)[C@@H](NC(=O)[C@H](Cc2c[nH]c3ccccc23)NC(=O)[C@H](CCCNC(=N)N)NC(=O)[C@@H](N)CCCNC(=N)N)CSSC[C@@H](C(=O)N[C@@H](CCCNC(=N)N)C(N)=O)NC(=O)[C@H](CCCCN)NC(=O)[C@H](CCCNC(=N)N)NC(=O)[C@H](Cc2ccc(O)cc2)NC(=O)[C@@H]2CSSC[C@H](NC1=O)C(=O)N[C@@H](Cc1ccc(O)cc1)C(=O)N[C@@H](CCCNC(=N)N)C(=O)NCC(=O)N[C@@H](Cc1ccccc1)C(=O)N2 [polyphemusin I] (HELM PEPTIDE1{R.R.W.C.F.R.V.C.Y.R.G.F.C.Y.R.K.C.R.[am]}$PEPTIDE1,PEPTIDE1,4:R3-17:R3|PEPTIDE1,PEPTIDE1,8:R3-13:R3$$$V2.0; N-terminus and C-terminus assumed)
>50 mg/L: all assays above
